Values quoted from earlier work, collected in patent publication US20060069069A1, “Methods and compositions for the administration of calcium chelators, bisphosponates and/or citrate compounds and their pharmaceutical uses” (Nanobac Pharmaceuticals, Inc., priority 2004, published 2006).

System: bone resorption
Conditions: versus etidronate; both in vitro and in vivo

NCCCC(O)(P(=O)(O)O)P(=O)(O)O [alendronate]
potency relative to etidronate for the prevention of bone resorption: approximately 700 fold
